ChEMBL document CHEMBL5370664, “Resveratrol Derivatives Inhibit Transthyretin Fibrillization: Structural Insights into the Interactions between Resveratrol Derivatives and Transthyretin” (J Med Chem, 2023)
Active and inactive are the calls of the source. The rule behind the calls is not given here.

Experiments:
Transthyretin [1] = target: T1, Transthyretin (Homo sapiens, UniProt P02766, V50M); assay: (§1) Inhibition of recombinant N-terminal hexa-histidine tagged TTR V30M mutant (unknown origin) expressed in Escherichia coli assessed as acid mediated amyloid-like fibril formation by measuring turbidity incubated for 1 week at 310K in presence of sodium acetate by absorbance based assay
Transthyretin [2] = target: T1, Transthyretin; assay: Binding affinity to recombinant N-terminal hexa-histidine tagged TTR V30M mutant (unknown origin) expressed in Escherichia coli assessed as quenching of intrinsic tryptophan fluorescence by measuring apparent dissociation constant incubated for 60 mins by fluorescence based analysis; settings: read-out: Kd(app)
[3] = system: Transthyretin (Homo sapiens), P02766 [V50M]; assay: as §1, with “fluorescence intensity at 1 uM” for “turbidity”, “4 days” for “1 week”, “thioflavin T” for “absorbance”, “fluorescence spectrophotometric analysis” for “assay”; settings: time 4.0 day
Transthyretin [4] = target: T1, Transthyretin; assay: Binding affinity to N-terminal hexa-histidine tagged TTR V30M mutant (unknown origin) expressed in Escherichia coli assessed as dissociation constant at 60 uM by ITC assay
[5] = system: Transthyretin (Homo sapiens), P02766 [V50M]; assay: Binding affinity to N-terminal hexa-histidine tagged TTR V30M mutant (unknown origin) expressed in Escherichia coli assessed as gibbs free energy change at 60 uM by ITC assay
[6] = system: Transthyretin (Homo sapiens), P02766 [V50M]; assay: Binding affinity to N-terminal hexa-histidine tagged TTR V30M mutant (unknown origin) expressed in Escherichia coli assessed as change in enthalpy at 60 uM by ITC assay
[7] = system: Transthyretin (Homo sapiens), P02766 [V50M]; assay: Binding affinity to N-terminal hexa-histidine tagged TTR V30M mutant (unknown origin) expressed in Escherichia coli assessed as change in entropy at 60 uM by ITC assay

| SMILES | Ki (Transthyretin [1]) [µM] | Kd (Transthyretin [2]) [µM] | inhibition [3] | Kd (Transthyretin [4]) [µM] | deltaG [5] [kcal/mol] | deltaH [6] [kcal/mol] | -TdeltaS [7] [kcal/mol] |
| --- | --- | --- | --- | --- | --- | --- | --- |
| COc1cc(/C=C/c2cc(O)cc(O)c2)ccc1O | 3.2 | 0.73 | Active | 1.2 | -8.1 | -13 | 4.7 |
| O=C(O)c1cc(-c2ccc(F)cc2F)ccc1O | – | – | Active | – | – | -13 | 5.2 |
| COc1cc(/C=C/c2ccc(O)cc2)cc(OC)c1 [PTEROSTILBENE] | 3.5 | 1.9 | Active | 4.6 | -7.3 | -14 | 6.8 |
| CC(=O)Oc1ccc(/C=C/c2cc(OC(C)=O)cc(OC(C)=O)c2)cc1 [TRIACETYLRESVERATROL] | 2.2 | – | Active | – | – | – | – |
| COc1cc(/C=C/c2ccc(OC)c(OC)c2)cc(OC)c1 [(E)-3,4,3',5'-TETRAMETHOXYSTILBENE] | 49 | 6.9 | inactive | – | – | – | – |
| Oc1cc(O)cc(/C=C/c2ccc(O)cc2O)c1 [OXYRESVERATROL] | 4.5 | 2.4 | Active | 1.4 | -8.1 | -16 | 7.5 |
| O=C(O)c1ccc2nc(-c3cc(Cl)cc(Cl)c3)oc2c1 | – | – | Active | – | – | -5 | -4 |
| COc1cc(O)cc(/C=C/c2ccc(O)cc2)c1 | 3.4 | 1.2 | Active | 2.4 | -7.7 | -14 | 6.2 |
| COc1ccc(/C=C/c2cc(OC)cc(OC)c2)cc1 [TRISMETHOXYRESVERATROL] | – | 4.1 | inactive | – | – | – | – |
| Oc1cc(O)cc(/C=C/c2ccc(O)c(O)c2)c1 [PICEATANNOL] | 5.4 | 2.1 | Active | 1.5 | -8 | -14 | 6.4 |
| Oc1ccc(/C=C/c2cc(O)cc(O)c2)cc1 [RESVERATROL] | 2.7 | 1.4 | Active | 1.5 | -8 | -15 | 6.6 |
| Oc1cc(O)cc(/C=C/c2c(O)cccc2O)c1 | 54 | 14 | inactive | 11 | -6.8 | -8.5 | 1.7 |
